ChEMBL document CHEMBL1157539, “Thousands of chemical starting points for antimalarial lead identification” (Nature, 2010)

These molecules were tested on Plasmodium falciparum (assay: GSK_TCMDC: Inhibition of Plasmodium falciparum 3D7 in whole erythrocytes, using parasite LDH activity as an index of growth.). Settings: Plasmodium falciparum, 3D7.
Assay type: functional, organism-based
With `COc1ccccc1/C=C/C(=O)N(C)C1CCN(CCCCCNC(=O)/C=C/c2ccc(Cl)c(Cl)c2)C1` (stereo not drawn) the XC50 was 867 nM.
In the case of `C=CCc1cc(Cc2cnc(N)nc2N)c2ccc(C)nc2c1OC`, the XC50 is reported as 691 nM.
Work on `CN(CCc1ccccc1)c1ncc(-c2cccc(CNCCC3CCCN3C)c2)cn1` (stereo not drawn) yielded an XC50 of 870 nM.
Molecule `CCOC(=O)c1c(NC(=O)c2ccccc2)sc2c(O)c(CNC3CCCCC3)ccc12` has an XC50 of 752 nM.
In the case of `Oc1c(CNC2CCCCC2)cc(Cl)c2ccccc12`, the XC50 is reported as 838 nM.
With `Cc1cccc(Nc2nc(N[C@@H]3CCCNC3)nc3cc[nH]c(=O)c23)c1` the XC50 was 683 nM.
`O=C(c1ccc(Cl)cc1)C1CCN(CCCOc2ccc3c(c2)CCNCC3)CC1` was tested, and the XC50 was 1150 nM.
`CN1CCN(C(C(=O)NCc2cc(Cl)cc(Cl)c2)c2ccc(NC(=O)Nc3ccccc3)cc2)CC1` (stereo not drawn) gave an XC50 of 692 nM.
`CS(=O)(=O)c1ccc(-c2cncc(Nc3cccc([N+](=O)[O-])c3)c2)cc1` was tested, and the XC50 was 773 nM.
`CC1(C)N=C(N)N=C(N)C1c1ccc(Cl)cc1` (stereo not drawn) was tested, and the XC50 was 259 nM.
For `CC(=O)c1c(C)[nH]c(C(=O)Nc2ccc(-c3nc4ccc(C)cc4s3)cc2)c1C`, the XC50 was 837 nM.
Work on `O=C(NOCc1ccccc1)c1cc(Cl)ccc1O` yielded an XC50 of 1100 nM.
`COc1ccc2nc(C)cc(N/N=C/c3ccc([N+](=O)[O-])cc3)c2c1` was tested, and the XC50 was 695 nM.
`Fc1ccc(-c2cc(NCCCn3ccnc3)nc(-c3cccnc3)n2)cc1` gave an XC50 of 974 nM.
In the case of `CC1CN(c2cccc3c2nc(-c2cncc(C#N)c2)n3CCNCc2ccccc2)CC(C)O1` (stereo not drawn), the XC50 is reported as 1220 nM.
Work on `CS(=O)(=O)Nc1ccc(-c2ccc3ccnc(N)c3c2)cc1` yielded an XC50 of 614 nM.
`O=S(=O)(NCCN1CCCC1)c1ccc(-c2cccc(CNCc3ccsc3)c2)s1` showed an XC50 of 896 nM.
`Cc1cc(N/N=C/c2cccc([N+](=O)[O-])c2)c2ccccc2n1` showed an XC50 of 728 nM.
`Nc1nc(-c2ccc3c(Nc4ccc(F)c(Cl)c4)ccnc3c2)cs1` gave an XC50 of 868 nM.
`COc1ccc2[nH]ccc(=NN=Cc3ccc(Cl)cc3)c2c1` gave an XC50 of 211 nM.
Molecule `CCCCN1C(=N)NC(c2ccccc2)(c2ccccc2)C1=O` has an XC50 of 1030 nM.
`CCOc1ccc(N2CCN(CCCCNC(=O)c3ccc(NC(=O)c4ccc(Cl)cc4)cc3)CC2)c(OCC)c1` showed an XC50 of 567 nM.
In the case of `Cn1cnc2c(Nc3ccncc3)nc(-c3ccc4ccccc4c3)nc21`, the XC50 is reported as 867 nM.
Work on `O=C(NCCCN1CCCC1=O)NCc1ccccc1` yielded an XC50 of 816 nM.
`CCCC(C)NC(=O)C(N)Cc1cccc(I)c1` (stereo not drawn) gave an XC50 of 975 nM.
`Cc1cccc(CNc2nc(C)cc(N[C@@H](CC(C)C)C(=O)NCc3cccc(F)c3)n2)c1` showed an XC50 of 1180 nM.
`CC(C)(C)c1ccc(NC(=O)c2cccc(CN3CCCN(Cc4ccc(F)cc4)CC3)c2)cc1` was tested, and the XC50 was 989 nM.
For `Nc1nccc2ccc(-c3ccncc3)cc12`, the XC50 was 249 nM.
`CC1CCc2sc(-c3nnc(SC(C)C(=O)N4CCCC4)o3)cc2C1` (stereo not drawn) showed an XC50 of 878 nM.
`Fc1cc(Cl)ccc1Nc1ccnc2cc(-c3scnc3CNCCN3CCOCC3)ccc12` was tested, and the XC50 was 848 nM.
`CC(Cc1ccc(CSC(C)C)cc1)NCC(O)c1cccc(Cl)c1` (stereo not drawn) was tested, and the XC50 was 603 nM.
`CNCCCCCCOc1ccc(CC(C)NCC(O)c2cccc(C(F)(F)F)c2)cc1` (stereo not drawn) gave an XC50 of 884 nM.
`CCCNCc1ccc(-c2ccc(CN(CC3CCCO3)C(=O)C3CC(=O)c4ccccc43)cc2)nc1` (stereo not drawn) gave an XC50 of 860 nM.
`CCCCN(CCCC)CCNC(=O)c1cccc(NC(=O)N2CCc3cc(SC)c(C(F)(F)F)cc32)c1` gave an XC50 of 809 nM.
For `CN(C)c1ccc(Br)c(Br)c1`, the XC50 was 975 nM.
Molecule `CC(=O)NCC(=O)NC1=NC(=N)N(OCc2ccc3ccccc3c2)C(C)(C)N1` has an XC50 of 3.2 nM.
For `Brc1ccc(Nc2nc3ccccc3nc2Nc2ccc(Br)cc2)cc1`, the XC50 was 783 nM.
Molecule `O=c1cc(NCCC2CC=CCN2Cc2ccc(Cl)c(Cl)c2)[nH]c2ccccc12` (stereo not drawn) has an XC50 of 1730 nM.
`N#Cc1ccc(/C=C/C(=O)NCCCCCN2CCCN(C(=O)Nc3ccc(Cl)c(C(F)(F)F)c3)CC2)cc1` showed an XC50 of 437 nM.
With `Cc1cccc(-n2c(Nc3ccc(C)c(Cl)c3)nc3ccc(S(=O)(=O)NC(C)C(C)C)cc32)c1` (stereo not drawn) the XC50 was 648 nM.
For `COc1ccc(CNC2CCN(C)CC2)cc1-c1ccc(S(=O)(=O)NCCc2ccccn2)cc1`, the XC50 was 1090 nM.
`COC[C@H]1CCCN1Cc1ccc(-c2ccc(-c3nc4ccccc4[nH]3)s2)cc1` was tested, and the XC50 was 1000 nM.
Work on `COc1ccc(CCNCCCCCCNCCc2ccccc2Cl)cc1OC` yielded an XC50 of 657 nM.
With `COc1ccc2[nH]c3ccccc3c(=O)c2c1` the XC50 was 1000 nM.
Work on `C=C[C@]1(C)C[C@@H](OC(=O)CSC2CN3CCC2C3)[C@@]2(C)C3C(=O)CC[C@@]3(CC[C@H]2C)[C@@H](C)[C@@H]1O` (stereo partly drawn) yielded an XC50 of 689 nM.
Molecule `Cc1cc(N2CCCC2)nc(Nc2ccc(NC(=O)c3ccco3)cc2)n1` has an XC50 of 842 nM.
Molecule `COc1cc(Nc2ccnc3cc(-c4ccccn4)ccc23)cc(OC)c1OC` has an XC50 of 912 nM.
`O=C(CNC1CCCCC1)c1ccc(O)c(O)c1` showed an XC50 of 660 nM.
Molecule `O=C(/C=C/c1ccc(Cl)c(Cl)c1)NCCCCCN1CCC(NC(=O)Nc2ccc(F)c(F)c2)CC1` has an XC50 of 842 nM.
Molecule `CN(C)CCCN1CCN(Cc2ccc(-c3ccc(-c4nc5ccccc5[nH]4)s3)cc2)CC1` has an XC50 of 820 nM.
In the case of `NC1CCN(Cc2ccc(-c3ccc(-c4nc5cc(F)ccc5[nH]4)s3)cc2)C1` (stereo not drawn), the XC50 is reported as 646 nM.
For `N#Cc1ccc(N[C@@H](CC2CCCCC2)C(=O)NCc2cc(F)c(F)cc2F)c2ccccc12`, the XC50 was 946 nM.
Molecule `CN(N=Cc1ccccc1)C(=N)NCCCC#Cc1cccc(CN2CCCC2)c1` has an XC50 of 1790 nM.
For `O=C(NCCc1ccccc1)N(Cc1ccccc1-c1cccc(CNC2CCCC2)c1)C1CCN(Cc2ccccc2)CC1`, the XC50 was 832 nM.
With `COc1ccccc1-c1csc(C(=O)NCC2CCN(Cc3ccc(C(C)(C)C)cc3)C2)c1` (stereo not drawn) the XC50 was 1110 nM.
Molecule `COc1cc2nc(Nc3ccc4c(ccn4Cc4ccccc4)c3)nc(Nc3ccc4c(ccn4Cc4ccccc4)c3)c2cc1OC` has an XC50 of 647 nM.
For `O=C(CN1CCC(NCc2cnc(-c3ccc(Cl)cc3)[nH]2)CC1)N1CCc2ccccc21`, the XC50 was 650 nM.
`CC(C)Oc1ccc(CCCON2C(=N)N=C(N)NC2(C)C)cc1` showed an XC50 of 3.2 nM.
For `CC(Cc1ccc(NC(=O)c2ccc(NCCc3ccccc3)cc2)cc1)NCCc1cccc(Cl)c1` (stereo not drawn), the XC50 was 854 nM.
Work on `O=C(Nc1cccc(-c2ccc(-c3nc4cc(C(F)(F)F)ccc4[nH]3)cc2)c1)c1cccnc1` yielded an XC50 of 572 nM.
Work on `Cc1cccc2nc(-c3ccc(-c4ccc(CNCC5CCCO5)cc4)s3)[nH]c12` (stereo not drawn) yielded an XC50 of 739 nM.
For `Cc1nnsc1C(=O)Nc1cccc(-c2cccc(-c3nc4ccccc4[nH]3)c2)c1`, the XC50 was 437 nM.
With `CCC(C(=O)Nc1cc(=O)[nH]c2nc(-c3ccco3)nn12)c1ccccc1` (stereo not drawn) the XC50 was 844 nM.
In the case of `O=C(Nc1cccc(CN2CCCN(Cc3ccc4c(c3)OCO4)CC2)c1)c1ccc(-c2ccccc2)cc1`, the XC50 is reported as 652 nM.
With `Cc1cc(F)ccc1Nc1nc(N(C)c2ccccc2)c2cccc(OCCO)c2n1` the XC50 was 795 nM.
With `Cc1cc(Br)c(OCCCON2C(=N)N=C(N)NC2(C)C)c(Br)c1` the XC50 was 3.2 nM.
`CCOc1ccc(Br)cc1/C=C/C(=O)Nc1ccc(C2CCN(C)CC2)cc1` gave an XC50 of 450 nM.
`NC1=NC(c2ccccc2)(c2ccccc2)C(=O)N1CCCCc1ccccc1` showed an XC50 of 760 nM.
`O=[N+]([O-])c1cccc(Nc2nccc(-c3cnn4ncccc34)n2)c1` was tested, and the XC50 was 184 nM.
`COc1ccc(Nc2nc(N/N=C/c3cc(Br)ccc3O)nc(Nc3ccc([N+](=O)[O-])cc3)n2)cc1` was tested, and the XC50 was 222 nM.
For `c1cc(CN2CCCCC2)cc(-c2cccc(-c3nc4ccccc4[nH]3)c2)c1`, the XC50 was 828 nM.
`O=C(c1ccc2ccccc2n1)N1CCCc2cc(Br)ccc21` showed an XC50 of 858 nM.
`O=C(/C=C/c1cccc2c1OCO2)Nc1ccnc2ccncc12` gave an XC50 of 895 nM.
For `Cc1nnc2c(NC(=O)NC(C)C)cc3cc(-c4ccc(CN5CCCCC5)cc4)ccc3n12`, the XC50 was 1180 nM.
For `Cc1cc(NC2CCCC2)nc(Nc2ccc(F)cc2)n1`, the XC50 was 471 nM.
`CCCNCc1ccc(-c2ccc(CN(CCOC)C(=O)c3ccccc3)cc2)nc1` was tested, and the XC50 was 876 nM.
`O=C(NC1CCC(N2CCC(c3ccccc3C(F)(F)F)CC2)CC1)c1cc2ccccc2[nH]1` (stereo not drawn) gave an XC50 of 521 nM.
`COc1ccc(CCNCc2ccc3c(C)cc(N)nc3c2)cc1` was tested, and the XC50 was 568 nM.
In the case of `OCCn1c(CNCCCNc2nc3ccccc3[nH]2)cc2c(Cl)cc(Cl)cc21`, the XC50 is reported as 806 nM.
Molecule `COc1cccc(C(=O)NCCc2cccc(Cl)c2)c1OCc1ccccc1` has an XC50 of 1260 nM.
Work on `OC(CNc1ccnc(Nc2cccc(OCCCN3CCOCC3)c2)n1)c1ccccc1` (stereo not drawn) yielded an XC50 of 924 nM.
`CCNc1cc(C(=O)N[C@@H](Cc2ccccc2)[C@H](O)CNC2CCC(F)(F)CC2)c(F)c(N2CCCCS2(=O)=O)c1` showed an XC50 of 212 nM.
`O=C(/C=C/c1ccc(Cl)c(Cl)c1)N1CCC(CN2CCC(c3c[nH]c4cnccc34)CC2)CC1` showed an XC50 of 219 nM.
With `O=C(NCCN1CCCC1)N1CCCN(c2ncnc3cc(-c4ccc(F)cc4)sc23)CC1` the XC50 was 902 nM.
`COc1cc(NC(=O)N2CCOC(CCN3CCC4(CCc5ccccc54)CC3)(c3ccc(Cl)c(Cl)c3)C2)cc(OC)c1` (stereo not drawn) was tested, and the XC50 was 819 nM.
`CN1CCN(c2ccc(Nc3ccnc4ccc(-c5ccccc5)cc34)cc2)CC1` showed an XC50 of 92.9 nM.
For `CN(C)CCCOc1cccc(CCNCc2cccc(Oc3ccc(Cl)cc3)c2)c1`, the XC50 was 1010 nM.
Molecule `COc1ccc(-c2csc(N(CCCN(C)C)C(=O)c3cc4c(C)nn(-c5ccccc5)c4s3)n2)cc1` has an XC50 of 623 nM.
`Nc1ccncc1C(=O)NCCCCN1CCN(c2nsc3ccccc23)CC1` was tested, and the XC50 was 803 nM.
For `CCc1c(C)nc(-n2nc(C)cc2NC(=O)C2c3ccccc3Oc3ccccc32)[nH]c1=O`, the XC50 was 952 nM.
In the case of `Oc1cccc(CNCCCN(Cc2ccccc2)c2ccccc2)c1`, the XC50 is reported as 600 nM.
`CCCNS(=O)(=O)c1ccc(NC(=O)C(C)Oc2ccc([N+](=O)[O-])cc2)cc1` (stereo not drawn) was tested, and the XC50 was 719 nM.
`FC(F)(F)c1cccc(CNCCCCCNCc2ccc(Cl)cc2)c1` showed an XC50 of 1030 nM.
In the case of `CCc1ccc(C2=Nn3c(nnc3-c3cccs3)SC2)cc1`, the XC50 is reported as 1290 nM.
Work on `CS(=O)(=O)Nc1ccc(OCCCCCCOc2ccc(NS(C)(=O)=O)cc2)cc1` yielded an XC50 of 493 nM.
For `COc1ccc(/C=C/C(=O)N2CCc3cc4nccc(N5CCN6CCC[C@H]6C5)c4cc32)cc1`, the XC50 was 642 nM.
With `CO/C(=C\C=C\c1cc2cc(Cl)c(Cl)cc2[nH]1)C(=O)N[C@H]1CN2CCC1CC2` the XC50 was 1210 nM.
Work on `Cc1cc(N[C@@H](CC(C)C)C(=O)NCc2cccs2)nc(NCCc2ccc(F)cc2)n1` yielded an XC50 of 800 nM.
`O=C(COc1ccccc1Cc1ccccc1)Nc1cc(Cl)ccc1-n1cncn1` showed an XC50 of 640 nM.
Work on `Cn1ncc2c3c(CCN4CCC(NCc5ccc6c(c5)NC(=O)CO6)CC4)c(Cl)cnc3ccc21` yielded an XC50 of 488 nM.
`CCCS(=O)(=O)N1CCC(CO)(Cc2ccccc2C(F)(F)F)CC1` was tested, and the XC50 was 885 nM.
Molecule `O=C(Nc1ccc2ccccc2c1)c1ccc(CN2CCC(Cc3ccccc3)CC2)cc1` has an XC50 of 876 nM.
`COc1ccc2nccc(N3CCC(NCCNCc4ccc5c(n4)NC(=O)CO5)C3)c2n1` (stereo not drawn) was tested, and the XC50 was 862 nM.
